Values quoted from earlier work as cited in patent publication US20260256792A1, “TREATMENT OF CHRONIC SPONTANEOUS URTICARIA BY ADMINISTERING (R)-2-[3-[4-AMINO-3-(2-FLUORO-4-PHENOXY-PHENYL)PYRAZOLO[3,4-D]PYRIMIDIN-1-YL]PIPERIDINE-1-CARBONYL]-4-METHYL-4-[4-(OXETAN-3-YL)PIPERAZIN-1-YL]PENT-2-ENENITRILE” (priority 2023, published 2026).

Conditions: humans, oral administration; cited from earlier work

## CC(C)(C=C(C#N)C(=O)N1CCC[C@@H](n2nc(-c3ccc(Oc4ccccc4)cc3F)c3c(N)ncnc32)C1)N1CCN(C2COC2)CC1 [rilzabrutinib, (R)-2-[3-[4-amino-3-(2-fluoro-4-phenoxy-phenyl)pyrazolo[3,4-d]pyrimidin-1-yl]piperidine-1-carbonyl]-4-methyl-4-[4-(oxetan-3-yl)piperazin-1-yl]pent-2-enenitrile]
  absorption: rapidly absorbed
  half-life: 3 to 4 h
